Experimental data from PMC9254247, “Dual-sensitive antibacterial peptide nanoparticles prevent dental caries” (Theranostics, 2022).
No end group written: not given here.

What was measured:
[1] = tested on: S. mutans UA159 biofilms on sHA; experiment: Biofilm model on saliva-coated hydroxyapatite (sHA); type: cell-based, Streptococcus mutans; settings: 55 µM; pH 4.5; 10 min, total of 5 days; n = 3
From the text: Treatment and quantitative analysis of b iofilm model on sHA. S.mutans biofilms also formed on sHA blocks (surface area=1 ± 0.2 cm2) in 24-well plates. According to the literature10, before the experiment, hydroxyapatite (diameter, 1.25 cm; Kunshan Chinese technology new materials CO, LTD) was coated with filter-sterilized clarified human whole saliva. The biofilm formation, treatment regimen, and quantitative analysis were roughly similar to the biofilms formed on circular glass slides as described above. The differences are that the biofilms should be treated after 24 hours of formation and biofilms were treated every other day for a total of 5 days. In addition, after treatment for 5 days, the sHA blocks were washed with PBS (pH 7.0) and then fixed with 2.5 % glutaraldehyde for 10 min. After being washed another 3 times with PBS (pH 7.0) to remove the remaining glutaraldehyde, the sHA blocks were stained using 0.5% crystal violet for 20 min. The fully washed sHA blocks were observedunder a light microscope (Insein Li Fung1080P 60FPS, China).
Treatment and quantitative analysis of human derived ex vivo biofilm s. […] The total cultivable bacteria for ex vivo biofilm formation was measured to ensure the same density of added bacteria (~2× 108). […] The quantitative analysis was measured by counting the CFU of alive bacteria with agar plating after incubation for 48 h at 37 °C. […]

pepsin = experiment: Degradation by pepsin (RP-HPLC); type: in vitro ADME; settings: peptide 100 µg/mL, pepsin 10 µg/mL, Tris buffer pH 4.0, 37 °C, 5 min, MALDI-TOF MS
Procedure: Figure 7 The biosafety of pHly-1 NPs to normal oral and gastric organoids. […] (B and C) The representative gastric organoid images (B) and oral organoid images (C) after 500 µM pHly-1 NPs or CHX treatment. (D and E) the viability of gastric (D) and oral (E) organoids after treatment with pHly-1 NPs or CHX was assessed by CellTiter-Blue cell viability assay. Scale bar, 100 µm. Each experiment was repeated 3 times. (F) RP-HPLC analysis of pHly-1 NPs degradation by pepsin. pHly-1 NPs (100 µg/mL) was incubated with pepsin (10 µg/mL) in Tris buffer (pH 4.0) at 37 °C for 5 min and submitted to RP-HPLC analysis. The HPLC fractions were analyzed by MALDI-TOF MS. The black arrow represents the intact peptide of pHly-1 NPs and the molecular weight is 2865.1 Da (Figure S14). After 5 min of pepsin hydrolysis, the molecular weight of the mainly peptide fragment is 1650.6 Da (Figure S14). All of the data are represented as average ± s.d.

[H]/N=C(\N/C(=N/[H])NCCCCCCNC(=N)NC(=N)Nc1ccc(Cl)cc1)Nc1ccc(Cl)cc1 [CHX, chlorhexidine] was tested, and the “biofilm on sHA, viable cell count (CFU)” value [1] was “apparent antibiofilm efficacy”.
For “KIWFHAMHIIAHFIAHQHLHQHL-NH2 [pHly-1 NPs]”, the degradation by pepsin (pepsin) was “rapidly degraded”.
